pIC50: −log10 of the molar value.
How the values were obtained:
[1] = Nitric oxide release, Griess colorimetric method; format: physicochemical; conditions: phosphate buffer pH 7.4, N-acetylcysteine
Procedure: For the indirect determination of NO, the Griess colorimetric approach was utilized, which includes spectrophotometry measurements of the stable decomposition products NO2^− and NO3^−. This method requires that NO3^− is first reduced to NO2^− and then NO2^− is determined by the Griess reaction that includes two steps, the first step is a diazotization reaction in which the NO-derived nitrogen agent, dinitrogen trioxide (N2O3), which is produced by the spontaneous oxidation of NO with sulfanilamide to form the diazonium ion, is used. […] In order to evaluate thiol-induced NO generation from the appropriate compounds, including NO-donating oximes 8a–b, 8d–i, and 10a–c, they were incubated in aqueous phosphate buffer of pH 7.4 in the presence of excess N-acetylcysteine, which serves as a source of thiols that are essential for the release of NO from oximes. The signal intensity of the dye is proportional to the amount of NO released. To quantify the amount of NO released, a standard curve was made by measuring the change in absorbance of various concentrations of standard sodium nitrite solutions treated by the same way. […] At the first hour, the amount of nitric oxide released increased in compounds 8i, 8b, and 8h, while the maximum release of nitric oxide occurring in compounds 8b and 8h was at 2 h. Then, the amount of nitic oxide released declined, which may explain the biological importance of oxime moiety as a source of nitric oxide release in comparison with ketone intermediates 7a–j and 9a–c, as shown in the anticancer activity of oxime derivatives.
The nitrite calibration curve in addition to the absorbance of the tested compounds were measured on Shimadzu UV-160, UV-Visible spectrophotometer (Shimadzu, Tokyo, Japan). The tested compounds were prepared as solutions in DMF and diluted with the buffer system until a concentration of 100 mM. N-Acetyl cysteine solution was prepared in a concentration of 500 mM in methanol. Griess reagent consists of 0.1% w/v NED solution in water and sulfanilamide solution (1% w/v of sulfanilamide in 5% w/v phosphoric acid). Nitrite standard solution (0.1 M sodium nitrite in water) stock solution was prepared, from which a dilute solution of 100 μM nitrite solution was prepared by dilution 1 mL of the stock solution to 1000 mL with phosphate buffer of pH 7.4. From this solution, 4 serials 2-fold dilutions were performed to generate different concentrations of the nitrite solution (100.00, 50.00, 25.00, and 12.50 μM) and these concentrations were used for nitrite calibration curve.
Sulfanilamide and NEDD solutions were kept at 25 °C; […] of sulfanilamide solution was added to each dilution of the prepared standard nitrite solution. The mixture was left at 25 °C for 5–10 min protected from light. To this mixture, […] of the NEDD solution was added and the mixture was again left for 5–10 min at 25 °C protected from light. […] A plot of the average absorbance value for each concentration of the nitrite standard solution as a function of “Y” against nitrite concentration as a function of “X” was constructed to generate a standard nitrite calibration curve at pH 7.4.
The amount of NO released from the tested compounds 8a–b, 8d–I, and 10a–c was measured using the Griess colorimetric method either in phosphate buffer of pH 7.4 in the presence of N-acetyl cysteine, which serves as a source of thiols. The amount of NO released from the tested compounds was measured relative to NO released from standard sodium nitrite solution.
Different solutions of the tested compounds 8a–b, 8d–i, and 10a–c in DMF were diluted using phosphate buffer of pH 7.4 till a final concentration of 100 mM (test solutions). To […] of different test solutions, […] of N-acetyl cysteine solution was added and the obtained solution was kept in an incubator at 37 °C (treated solutions). […]

[2] = test system: human myelogenous leukemia cell line K562; assay: WST-8 antiproliferative assay, K562; format: cell-based; conditions: Homo sapiens, K562, WST-8 assay; for inhibition at 100 µM: read-out: Growth Inhibition (GI%) K562; for pIC50: six concentrations 1-100 µM, read-out: IC50 K562
[3] = test system: human cervical cancer cell line Hela; assay: WST-8 antiproliferative assay, Hela; format: cell-based; conditions: WST-8 assay; for inhibition at 100 µM: read-out: Growth Inhibition (GI%) Hela; for pIC50: six concentrations 1-100 µM, read-out: IC50 Hela

| pIC50 [2] | pIC50 [3] | Structure (SMILES) | Amount of NO Released (mol/mol) 1 h [1] [mol/mol] | Amount of NO Released (mol/mol) 2 h [1] [mol/mol] | Amount of NO Released (mol/mol) 3 h [1] [mol/mol] | Amount of NO Released (mol/mol) 4 h [1] [mol/mol] | inhibition at 100 µM [2] [%] | inhibition at 100 µM [3] [%] |
| --- | --- | --- | --- | --- | --- | --- | --- | --- |
| 4.15 | 4.89 | COc1cc(/C(C)=N/O)ccc1OC(=O)c1cc(-c2ccc(Cl)cc2)n(-c2ccc(S(N)(=O)=O)cc2)n1 [Compound 8i, (E)–4–(1–(Hydroxyimino)ethyl)–2–methoxyphenyl 5–(4–chlorophenyl)–1–(4–sulfamoyl phenyl)–1H–pyrazole–3–carboxylate] | 0.105 ± 0.029 | 0.115 ± 0.018 | 0.109 ± 0.046 | 0.087 ± 0.035 | 97 | 100 |
| 4.68 | 4.13 | COc1ccc(-c2cc(C(=O)Oc3ccc(/C(C)=N/O)cc3OC)nn2-c2ccc(S(N)(=O)=O)cc2)cc1 [Compound 8h, (E)–4–(1–(Hydroxyimino)ethyl)–2–methoxyphenyl 5–(4–methoxyphenyl)–1–(4–sulfamoyl phenyl)–1H–pyrazole–3–carboxylate] | 0.099 ± 0.029 | 0.158 ± 0.014 | 0.104 ± 0.033 | 0.094 ± 0.0022 | 78 | 7 |
| 4.54 | 5.30 | COc1ccc(-c2cc(C(=O)Nc3ccc(/C(C)=N/O)cc3)nn2-c2ccc(S(N)(=O)=O)cc2)cc1OC [Compound 10c, (E)–5–(3,4–Dimethoxyphenyl)–N–(4–(1–(hydroxyimino)ethyl)phenyl)–1–(4–sulfamoyl phenyl)–1H–pyrazole–3–carboxamide] | 0.075 ± 0.036 | 0.151 ± 0.049 | 0.114 ± 0.030 | 0.081 ± 0.020 | 87 | 75 |

From paper PMC10537604, “Development and Assessment of 1,5–Diarylpyrazole/Oxime Hybrids Targeting EGFR and JNK–2 as Antiproliferative Agents: A Comprehensive Study through Synthesis, Molecular Docking, and Evaluation” (Molecules, 2023)
